The structures appear in SMILES notation. Some results are limits rather than exact numbers.

The experiment has as its system P388. The experiment can be described thus: Cytotoxicity against mouse P388 cells after 48 hrs by MTT assay. In kind it is functional, cell-based. The settings on record: P388, 48 h. (In general: Formazan colour is commonly taken as a measure of viable cells.)
Regarding `C=C/C=C\[C@H](C)[C@H](OC(N)=O)[C@@H](C)[C@H](O)[C@@H](C)C/C(C)=C\[C@H](C)[C@@H](O)[C@@H](C)/C=C\[C@@H](O)C[C@@H]1OC(=O)[C@H](C)[C@@H](OC(C)=O)[C@H]1C`, the midpoint of inhibition, the IC50, lay at 12.6 nM.
With `C=C/C=C\[C@H](C)[C@H](OC(N)=O)[C@@H](C)[C@H](O)[C@@H](C)C/C(C)=C\[C@H](C)[C@@H](O)[C@@H](C)/C=C\[C@H](C[C@@H]1OC(=O)[C@H](C)[C@@H](OC(C)=O)[C@H]1C)OC(C)=O`, the IC50 – broadly, the concentration needed to halve the response being measured – worked out at 0.74 nM.
As for `C=C/C=C\[C@H](C)[C@H](OC(N)=O)[C@@H](C)[C@H](O)[C@@H](C)C/C(C)=C\[C@H](C)[C@@H](OC(C)=O)[C@@H](C)/C=C\[C@H](C[C@@H]1OC(=O)[C@H](C)[C@@H](OC(C)=O)[C@H]1C)OC(C)=O`, the IC50 came to 166 nM.
`C=C/C=C\[C@H](C)[C@H](OC(N)=O)[C@@H](C)[C@H](OC(C)=O)[C@@H](C)C/C(C)=C\[C@H](C)[C@@H](O)[C@@H](C)/C=C\[C@H](C[C@@H]1OC(=O)[C@H](C)[C@@H](OC(C)=O)[C@H]1C)OC(C)=O`: the IC50 is above 6920 nM.
In turn, `C=C/C=C\[C@H](C)[C@H](OC(N)=O)[C@@H](C)[C@H](O)[C@@H](C)C/C(C)=C\[C@H](C)[C@@H](OC(C)=O)[C@@H](C)/C=C\[C@@H](O)C[C@@H]1OC(=O)[C@H](C)[C@@H](OC(C)=O)[C@H]1C` gave an IC50 of 103 nM.
For `C=C/C=C\[C@H](C)[C@H](OC(N)=O)[C@@H](C)[C@H](OC(C)=O)[C@@H](C)C/C(C)=C\[C@H](C)[C@@H](OC(C)=O)[C@@H](C)/C=C\[C@H](C[C@@H]1OC(=O)[C@H](C)[C@@H](OC(C)=O)[C@H]1C)OC(C)=O` the value was 837 nM; for `C=C/C=C\[C@H](C)[C@H](OC(N)=O)[C@@H](C)[C@H](O)[C@@H](C)C/C(C)=C\[C@H](C)[C@@H](O)[C@@H](C)/C=C\[C@H](C[C@@H]1OC(=O)[C@H](C)[C@@H](O)[C@H]1C)OC(C)=O`, 3.9 nM; for `C=C/C=C\[C@H](C)[C@H](OC(N)=O)[C@@H](C)[C@H](OC(C)=O)[C@@H](C)C/C(C)=C\[C@H](C)[C@@H](O)[C@@H](C)/C=C\[C@@H](O)C[C@@H]1OC(=O)[C@H](C)[C@@H](OC(C)=O)[C@H]1C`, 1150 nM.

The values above are taken from ChEMBL document CHEMBL1155704, “Acetylated analogues of the microtubule-stabilizing agent discodermolide: preparation and biological activity” (J Nat Prod, 2001).
